The values below come from US20120010235A1, “N-SUBSTITUTED PYRROLIDINES” (priority 2010, published 2012).

Where a name gives a salt, the structure may show the parent alone.

The test system of this assay is SJSA, an osteocarcinoma cell line. Put plainly: antiproliferative activity assay (tetrazolium dye, MTT) in SJSA cells. The conditions noted are these: cell-based MTT assay, inhibition of cell proliferation, read-out: TT IC50. As for the experimental part:
The pharmacological properties of the compounds of this invention may be confirmed by a number of pharmacological assays. The exemplified antiproliferative activity assay which follows has been carried out with the compounds according to the invention.
Cell proliferation was evaluated by the tetrazolium dye assay according to the procedure of Denizot and Lang (Denizot, F. and Lang, R. (1986) Rapid colorimetric assay for cell growth and survival. Modification to the terrazolium dye procedure giving improved sensitivity and reliability. J. Immunol. Methods 89, 271-277). The cell line used was SJSA, an osteocarcinoma cell line obtained from the American Type Cell Culture Collection (ATCC; Rockville, Md.). The cells were grown in PRMI with 10% FBS (Fetal Bovine Serum, Invitrogen).
Cells were plated at the appropriate seeding density to give logarithmic growth over the course of the assay in a 96-well tissue culture plate. Plates were incubated overnight at 37° C. in a humidified incubator with 5% CO2. The next day, test compounds were serially diluted 1:3 in the appropriate medium containing 3% DMSO. One-tenth final volume of each dilution was added […] to the plates containing cells. The same volume of 3% DMSO in medium was added to a row of control wells. Thus, the final concentration of DMSO in all wells was 0.3%. The plates were returned to the incubator, and at set time points (determined by their growth curves) plates were analyzed as follows: 3-(4,5-dimethylthiazole-2-yl)-2,5-diphenyl-2H-tetrazolium bromide (thiazolyl blue; MTT; Sigma) was added to each well to yield a final concentration of 1 mg/ml. Plates were returned to the incubator for 2.5 hours. The MTT-containing medium was removed and the resulting formazan metabolite was solubilized in 100% ethanol with shaking for 15 minutes at room temperature. Absorbances were read in a microtiter plate reader at a wavelength of 570 nm with a 650 nm reference. Percent inhibition (% INH) was calculated by subtracting the blank from all wells, then subtracting the ratio of the average absorbance of each triplicate (SAVE) by the average of the controls (CAVE) from 1.00. The final product was then multiplied by 100 (% INH=(1.00−SAVE/CAVE)×100). The concentration at which 50% inhibition (IC50) of cell proliferation is obtained was determined from the linear regression of a plot of the logarithm of the concentration versus percent inhibition.
A general note: Formazan colour is commonly taken as a measure of viable cells.
Broadly, the IC50 is the concentration at which inhibition is half-maximal. As to `CN1[C@@H](CC(C)(C)C)[C@](C#N)(c2ccc(Cl)cc2F)[C@@H](c2cccc(Cl)c2F)[C@@H]1C(=O)Nc1ccc(C(C)(C)C(=O)O)cc1` [Example 27, 2-(4-{[(2R,3S,4R,5S)-3-(3-chloro-2-fluoro-phenyl)-4-(4-chloro-2-fluoro-phenyl)-4-cyano-5-(2,2-dimethyl-propyl)-1-methyl-pyrrolidine-2-carbonyl]amino}-phenyl)-2-methyl-propionic acid], the IC50 was found to be 1950 nM.
The figure for `COc1cc(C(=O)O)ccc1NC(=O)[C@H]1[C@H](c2cccc(Cl)c2F)[C@@](C#N)(c2ccc(Cl)cc2F)[C@H](CC(C)(C)C)N1C` [Example 31, 4-{[(2R,3S,4R,5S)-3-(3-chloro-2-fluoro-phenyl)-4-(4-chloro-2-fluoro-phenyl)-4-cyano-5-(2,2-dimethyl-propyl)-1-methyl-pyrrolidine-2-carbonyl]-amino}-3-methoxy-benzoic acid] is 190 nM.
The figure for `CC(C)CN1[C@@H](CC(C)(C)C)[C@](C#N)(c2ccc(Cl)cc2F)[C@@H](c2cccc(Cl)c2F)[C@@H]1C(=O)Nc1ccc(C(=O)O)cc1` [Example 32, 4-{[(2R,3S,4R,5S)-3-(3-chloro-2-fluoro-phenyl)-4-(4-chloro-2-fluoro-phenyl)-4-cyano-5-(2,2-dimethyl-propyl)-1-isobutyl-pyrrolidine-2-carbonyl]-amino}-benzoic acid] is 660 nM.
For the compound `COc1cc(NC(=O)[C@H]2[C@H](c3cccc(Cl)c3F)[C@@](C#N)(c3ccc(Cl)cc3F)[C@H](CC(C)(C)C)N2CC2CC2)ccc1C(=O)O` [Example 38, 4-{[(2R,3S,4R,5S)-3-(3-chloro-2-fluoro-phenyl)-4-(4-chloro-2-fluoro-phenyl)-4-cyano-1-cyclopropylmethyl-5-(2,2-dimethyl-propyl)-pyrrolidine-2-carbonyl]-amino}-2-methoxy-benzoic acid], the IC50 amounted to 90 nM.
Take `COC(=O)c1nc(NC(=O)[C@H]2[C@H](c3cccc(Cl)c3F)[C@@](C#N)(c3ccc(Cl)cc3F)[C@H](CC(C)(C)C)N2C)n[nH]1` [Example 54, 5-{[(2R,3S,4R,5S)-3-(3-chloro-2-fluoro-phenyl)-4-(4-chloro-2-fluoro-phenyl)-4-cyano-5-(2,2-dimethyl-propyl)-1-methyl-pyrrolidine-2-carbonyl]-amino}-2H-[1,2,4]triazole-3-carboxylic acid methyl ester]: the IC50 came to 750 nM.
As to `CN1[C@@H](CC(C)(C)C)[C@](C#N)(c2ccc(Cl)cc2F)[C@@H](c2cccc(Cl)c2F)[C@@H]1C(=O)Nc1ncc(C(=O)O)[nH]1` [Example 55, 2-{[(2R,3S,4R,5S)-3-(3-chloro-2-fluoro-phenyl)-4-(4-chloro-2-fluoro-phenyl)-4-cyano-5-(2,2-dimethyl-propyl)-1-methyl-pyrrolidine-2-carbonyl]-amino}-3H-imidazole-4-carboxylic acid trifluoracetate salt], the IC50 is 4000 nM.
Take `CN1[C@@H](CC(C)(C)C)[C@](C#N)(c2ccc(Cl)cc2F)[C@@H](c2cccc(Cl)c2F)[C@@H]1C(=O)Nc1ccn(CC(C)(C)O)n1` [Example 58, (2R,3S,4R,5S)-3-(3-chloro-2-fluoro-phenyl)-4-(4-chloro-2-fluoro-phenyl)-4-cyano-5-(2,2-dimethyl-propyl)-1-methyl-pyrrolidine-2-carboxylic acid [1-(2-hydroxy-2-methyl-propyl)-1H-pyrazol-3-yl]-amide]: the IC50 amounted to 3590 nM.
Turning to `CCOC(=O)C1CC1CN1[C@@H](CC(C)(C)C)[C@](C#N)(c2ccc(Cl)cc2F)[C@@H](c2cccc(Cl)c2F)[C@@H]1C(=O)Nc1ccc(C(=O)OC)cc1OC` (stereo partly drawn) [Example 61, 4-{[(2R,3S,4R,5S)-3-(3-chloro-2-fluoro-phenyl)-4-(4-chloro-2-fluoro-phenyl)-4-cyano-5-(2,2-dimethyl-propyl)-1-(2-ethoxycarbonyl-cyclopropylmethyl)-pyrrolidine-2-carbonyl]-amino}-3-methoxy-benzoic acid methyl ester], the IC50 worked out at 680 nM.
The figure for `C#CCN1[C@@H](CC(C)(C)C)[C@](C#N)(c2ccc(Cl)cc2F)[C@@H](c2cccc(Cl)c2F)[C@@H]1C(=O)Nc1ccc(C(=O)O)cc1OC` [Example 62, 4-{[(2R,3S,4R,5S)-3-(3-chloro-2-fluoro-phenyl)-4-(4-chloro-2-fluoro-phenyl)-4-cyano-5-(2,2-dimethyl-propyl)-1-prop-2-ynyl-pyrrolidine-2-carbonyl]-amino}-3-methoxy-benzoic acid] is 80 nM.
